Laboratory results taken from ChEMBL document CHEMBL5303573, “Mapping human microbiome drug metabolism by gut bacteria and their genes” (Nature, 2019).

How the values were obtained:
[1] = The drug is tested on Bifidobacterium ruminantium strain: fecal isolate for biotransformation. The drug concentrations were measured before and after a 12-h incubation by liquid-chromatography-coupled mass spectrometry (LC–MS); details: 2 µM
[2] = The drug is tested on Bacteroides xylanisolvens strain: DSM18836 for biotransformation. The drug concentrations were measured before and after a 12-h incubation by liquid-chromatography-coupled mass spectrometry (LC–MS); details: 2 µM
[3] = The drug is tested on Clostridium hathewayi strain: DSM13479 for biotransformation. The drug concentrations were measured before and after a 12-h incubation by liquid-chromatography-coupled mass spectrometry (LC–MS); details: hungatella hathewayi, 2 µM
[4] = The drug is tested on Clostridium ramosum strain: DSM1402 for biotransformation. The drug concentrations were measured before and after a 12-h incubation by liquid-chromatography-coupled mass spectrometry (LC–MS); details: thomasclavelia ramosa, 2 µM
[5] = The drug is tested on Eubacterium rectale strain: ATCC33656 for biotransformation. The drug concentrations were measured before and after a 12-h incubation by liquid-chromatography-coupled mass spectrometry (LC–MS); details: agathobacter rectalis, 2 µM
[6] = The drug is tested on Enterobacter cancerogenus strain: ATCC35316 for biotransformation. The drug concentrations were measured before and after a 12-h incubation by liquid-chromatography-coupled mass spectrometry (LC–MS); details: 2 µM
[7] = parabacteroides johnsonii, 12 h, 2 µM
Description: The drug is tested on Parabacteroides johnsonii strain: DSM18315 for biotransformation. The drug concentrations were measured before and after a 12-h incubation by liquid-chromatography-coupled mass spectrometry (LC–MS)

[8] = bacteroides fragilis, 12 h, 2 µM
Description: The drug is tested on Bacteroides fragilis strain: DS-208 for biotransformation. The drug concentrations were measured before and after a 12-h incubation by liquid-chromatography-coupled mass spectrometry (LC–MS)

SMILES | Bacterial Biotransformation [1] | Bacterial Biotransformation [2] | Bacterial Biotransformation [3] | Bacterial Biotransformation [4] | Bacterial Biotransformation [5] | Bacterial Biotransformation [6] | Bacterial Biotransformation [7] | Bacterial Biotransformation [8]
CCCC(=O)Nc1ccc(OCC(O)CNC(C)C)c(C(C)=O)c1 (stereo not drawn) [ACEBUTOLOL] | Compound NOT metabolized | Compound NOT metabolized | Compound NOT metabolized | Compound NOT metabolized | Compound NOT metabolized | Compound NOT metabolized | Compound NOT metabolized | –
CC(C)NCC(O)COc1ccc(CCOCC2CC2)cc1 (stereo not drawn) [BETAXOLOL] | – | – | Compound NOT metabolized | Compound NOT metabolized | Compound NOT metabolized | – | – | Compound NOT metabolized
CC(NC(C)(C)C)C(=O)c1cccc(Cl)c1 (stereo not drawn) [BUPROPION] | Compound metabolized | Compound NOT metabolized | Compound NOT metabolized | Compound NOT metabolized | – | Compound NOT metabolized | Compound NOT metabolized | Compound NOT metabolized
COc1ccccc1OCCNCC(O)COc1cccc2[nH]c3ccccc3c12 (stereo not drawn) [CARVEDILOL] | Compound metabolized | Compound metabolized | Compound metabolized | Compound metabolized | Compound NOT metabolized | Compound metabolized | Compound metabolized | Compound metabolized
O=C(O)COCCN1CCN(C(c2ccccc2)c2ccc(Cl)cc2)CC1 (stereo not drawn) [CETIRIZINE] | Compound NOT metabolized | Compound metabolized | Compound NOT metabolized | Compound NOT metabolized | Compound NOT metabolized | Compound NOT metabolized | Compound NOT metabolized | Compound metabolized
CN/C(=N/CCSCc1nc[nH]c1C)NC#N [CIMETIDINE] | Compound NOT metabolized | Compound NOT metabolized | Compound NOT metabolized | Compound NOT metabolized | Compound NOT metabolized | Compound NOT metabolized | – | –
Clc1cccc(Cl)c1N=C1NCCN1 [CLONIDINE] | Compound NOT metabolized | Compound NOT metabolized | Compound NOT metabolized | Compound NOT metabolized | Compound NOT metabolized | Compound NOT metabolized | Compound NOT metabolized | Compound metabolized
CN1CCN(C2=Nc3cc(Cl)ccc3Nc3ccccc32)CC1 [CLOZAPINE] | Compound NOT metabolized | Compound NOT metabolized | Compound NOT metabolized | Compound NOT metabolized | Compound NOT metabolized | Compound NOT metabolized | Compound NOT metabolized | Compound NOT metabolized
CN(C)CCC=C1c2ccccc2C=Cc2ccccc21 [CYCLOBENZAPRINE] | Compound NOT metabolized | Compound NOT metabolized | Compound NOT metabolized | Compound NOT metabolized | Compound NOT metabolized | Compound NOT metabolized | – | Compound NOT metabolized
c1ccc([C@H]2CN3CCSC3=N2)cc1 [LEVAMISOLE] | Compound NOT metabolized | Compound metabolized | Compound NOT metabolized | – | Compound NOT metabolized | – | Compound metabolized | Compound metabolized
COc1ccc2[nH]c([S+]([O-])Cc3ncc(C)c(OC)c3C)nc2c1 (stereo not drawn) [OMEPRAZOLE] | Compound metabolized | Compound metabolized | – | Compound metabolized | Compound metabolized | Compound metabolized | Compound metabolized | Compound metabolized
Cc1nc2n(c(=O)c1CCN1CCC(c3noc4cc(F)ccc34)CC1)CCCC2O (stereo not drawn) [PALIPERIDONE] | Compound metabolized | Compound metabolized | – | Compound metabolized | Compound metabolized | Compound metabolized | Compound metabolized | Compound metabolized
CNC(=C[N+](=O)[O-])NCCSCc1ccc(CN(C)C)o1 [RANITIDINE] | Compound metabolized | Compound metabolized | – | Compound metabolized | Compound metabolized | Compound NOT metabolized | Compound metabolized | Compound metabolized
CCOc1cc(CC(=O)N[C@@H](CC(C)C)c2ccccc2N2CCCCC2)ccc1C(=O)O [REPAGLINIDE] | Compound NOT metabolized | Compound metabolized | Compound NOT metabolized | – | Compound NOT metabolized | Compound NOT metabolized | Compound metabolized | –
COc1ccc2[nH]c([S+]([O-])Cc3ncc(C)c(OC)c3C)nc2n1 (stereo not drawn) [TENATOPRAZOLE] | Compound metabolized | Compound metabolized | – | Compound metabolized | Compound metabolized | Compound metabolized | Compound metabolized | Compound metabolized
